Values after ≈ are worked out from the molar mass of the structure shown.
What was measured:
[1] = Intrinsic clearance in rat liver microsomes; assay type: ADME, Microsome; conditions: read-out: CLH
[2] = biological target: T1, Protein cereblon/Protein Wiz (Homo sapiens, UniProt Q96SW2+O95785); assay: Molecular glue activity at CRBN/WIZ in human CD34-positive derived primary erythroblast cells assessed as induction of WIZ degradation by measuring maximal efficacy measured after 24 hrs by flow cytometric analysis relative to control; assay type: cell-based
T1 sequence (O95785 whole entry, looked up): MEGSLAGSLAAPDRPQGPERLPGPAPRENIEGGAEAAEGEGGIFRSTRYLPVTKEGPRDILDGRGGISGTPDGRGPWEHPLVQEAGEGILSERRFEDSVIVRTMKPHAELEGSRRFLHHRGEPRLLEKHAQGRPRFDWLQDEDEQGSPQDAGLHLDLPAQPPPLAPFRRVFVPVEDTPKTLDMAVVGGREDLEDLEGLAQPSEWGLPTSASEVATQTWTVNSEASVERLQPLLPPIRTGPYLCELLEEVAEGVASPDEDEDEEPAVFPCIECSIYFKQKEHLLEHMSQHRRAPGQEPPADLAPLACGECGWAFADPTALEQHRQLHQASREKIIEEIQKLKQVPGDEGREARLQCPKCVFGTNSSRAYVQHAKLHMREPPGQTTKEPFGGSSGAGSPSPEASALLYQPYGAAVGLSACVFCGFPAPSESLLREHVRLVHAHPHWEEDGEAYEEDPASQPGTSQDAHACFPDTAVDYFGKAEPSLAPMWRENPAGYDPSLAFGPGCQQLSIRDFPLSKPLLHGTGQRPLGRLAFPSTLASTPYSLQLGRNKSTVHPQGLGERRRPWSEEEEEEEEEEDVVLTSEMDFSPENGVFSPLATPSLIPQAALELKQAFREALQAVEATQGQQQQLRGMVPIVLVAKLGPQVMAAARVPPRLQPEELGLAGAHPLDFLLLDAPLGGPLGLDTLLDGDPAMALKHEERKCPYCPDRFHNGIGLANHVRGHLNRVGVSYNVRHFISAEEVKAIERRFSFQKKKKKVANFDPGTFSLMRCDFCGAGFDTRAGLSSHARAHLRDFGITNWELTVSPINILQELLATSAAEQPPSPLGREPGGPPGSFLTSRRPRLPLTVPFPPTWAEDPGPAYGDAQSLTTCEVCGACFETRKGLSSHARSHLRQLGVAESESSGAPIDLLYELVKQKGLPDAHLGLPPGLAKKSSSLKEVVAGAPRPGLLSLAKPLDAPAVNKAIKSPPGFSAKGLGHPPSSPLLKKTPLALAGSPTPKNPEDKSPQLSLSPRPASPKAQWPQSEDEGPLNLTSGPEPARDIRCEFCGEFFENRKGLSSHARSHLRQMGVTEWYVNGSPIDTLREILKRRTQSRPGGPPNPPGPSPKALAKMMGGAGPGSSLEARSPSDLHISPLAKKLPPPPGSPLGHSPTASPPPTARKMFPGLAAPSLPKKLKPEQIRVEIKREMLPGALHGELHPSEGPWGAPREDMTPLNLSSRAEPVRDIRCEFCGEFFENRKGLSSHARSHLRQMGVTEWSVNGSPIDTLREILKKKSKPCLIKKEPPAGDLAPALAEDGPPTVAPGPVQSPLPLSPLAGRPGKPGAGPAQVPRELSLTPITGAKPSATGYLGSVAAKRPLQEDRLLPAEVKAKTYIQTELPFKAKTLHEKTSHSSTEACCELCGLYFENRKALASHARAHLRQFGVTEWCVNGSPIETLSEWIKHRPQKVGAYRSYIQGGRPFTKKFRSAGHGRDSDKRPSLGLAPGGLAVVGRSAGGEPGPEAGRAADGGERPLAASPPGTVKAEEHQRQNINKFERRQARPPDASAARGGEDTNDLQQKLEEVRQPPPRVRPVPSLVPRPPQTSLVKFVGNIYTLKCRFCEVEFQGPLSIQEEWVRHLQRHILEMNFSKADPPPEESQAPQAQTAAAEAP
T1 sequence (Q96SW2 whole entry, looked up): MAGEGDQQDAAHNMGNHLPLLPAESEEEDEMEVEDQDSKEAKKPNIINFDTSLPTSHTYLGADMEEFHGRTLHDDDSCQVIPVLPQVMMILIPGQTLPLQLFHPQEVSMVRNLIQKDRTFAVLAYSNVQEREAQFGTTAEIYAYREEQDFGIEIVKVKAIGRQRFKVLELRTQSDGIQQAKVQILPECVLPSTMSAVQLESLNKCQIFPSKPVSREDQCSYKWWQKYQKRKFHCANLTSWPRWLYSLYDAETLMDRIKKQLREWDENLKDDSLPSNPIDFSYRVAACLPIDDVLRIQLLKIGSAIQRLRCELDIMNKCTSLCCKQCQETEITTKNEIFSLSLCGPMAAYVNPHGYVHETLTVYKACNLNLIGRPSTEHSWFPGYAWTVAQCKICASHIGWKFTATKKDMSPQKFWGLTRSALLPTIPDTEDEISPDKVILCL

[3] = Solubility of compound in potassium phosphate buffer at pH 6.8 incubated for 16 to 24 hrs by high-throughput Agilent Rapidfire-MS/MS analysis; assay type: physicochemical; conditions: time 16-24 hrs
[4] = Protein binding in rat plasma; assay type: ADME, cell-free; conditions: read-out: PPB (converted)
[5] = Volume of distribution at steady state in C57BL/6 mouse at 1 mg/kg, iv; assay type: ADME, organism-based; conditions: in vivo, read-out: Vdss
[6] = biological target: T1, Protein cereblon/Protein Wiz; assay: In vivo molecular glue activity at CRBN/WIZ in immunocompromised naive NBSGW mouse xenografted with human CD34 positive HSPC cells assessed as fold increase in Hbf-positive cells in moCD45 negative hCD45negative CD71positive CD235A positive bone marrow cells at 1 to 10 mg/kg, po administered once daily for 21 days by staining based analysis; assay type: functional, organism-based; conditions: dose 1-10 mg/kg, time 21.0 day
[7] = Intrinsic clearance in mouse liver microsomes; assay type: ADME, Microsome; conditions: read-out: CLH
[8] = biological target: T1, Protein cereblon/Protein Wiz; assay: Molecular glue activity at CRBN/HiBiT-tagged WIZ (unknown origin) expressed in HEK293T cells assessed as induction of WIZ degradation incubated for 18 hrs by Nano-Glo HiBiT-Lytic reagent based luminescence plate reader analysis relative to control; assay type: cell-based; set-up: concentration or dose not given beside the values
[9] = Apparent permeability across apical to basolateral side in low efflux MDCK cells assessed as drug recovery at 10 uM incubated for 2 hrs by LC-MS analysis; assay type: ADME, cell-based, Canis lupus familiaris; conditions: dog, read-out: Drug recovery
[10] = AUClast in C57BL/6 mouse at 3 mg/kg, po; assay type: ADME, organism-based; conditions: in vivo
[11] = Toxicity in immunocompromised naive NBSGW mouse xenografted with human CD34 positive HSPC cells assessed as effect on body weight at 1 to 10 mg/kg, po administered once daily for 21 days; assay type: organism-based; conditions: in vivo, 504 h, dose 1-10 mg/kg, time 21 day
[12] = biological target: T2, Protein cereblon/Eukaryotic peptide chain release factor GTP-binding subunit ERF3A (Homo sapiens, UniProt Q96SW2+P15170); assay: Molecular glue activity at CRBN/HiBiT-tagged GSPT1 (unknown origin) expressed in human GripTite 293 MSR cells assessed as induction of GSPT1 degradation incubated for 20 hrs by Nano-Glo HiBiT-Lytic reagent based luminescence plate reader analysis relative to control; assay type: cell-based; set-up: concentration or dose not given beside the values
Target sequence in this assay (P15170 whole entry, looked up): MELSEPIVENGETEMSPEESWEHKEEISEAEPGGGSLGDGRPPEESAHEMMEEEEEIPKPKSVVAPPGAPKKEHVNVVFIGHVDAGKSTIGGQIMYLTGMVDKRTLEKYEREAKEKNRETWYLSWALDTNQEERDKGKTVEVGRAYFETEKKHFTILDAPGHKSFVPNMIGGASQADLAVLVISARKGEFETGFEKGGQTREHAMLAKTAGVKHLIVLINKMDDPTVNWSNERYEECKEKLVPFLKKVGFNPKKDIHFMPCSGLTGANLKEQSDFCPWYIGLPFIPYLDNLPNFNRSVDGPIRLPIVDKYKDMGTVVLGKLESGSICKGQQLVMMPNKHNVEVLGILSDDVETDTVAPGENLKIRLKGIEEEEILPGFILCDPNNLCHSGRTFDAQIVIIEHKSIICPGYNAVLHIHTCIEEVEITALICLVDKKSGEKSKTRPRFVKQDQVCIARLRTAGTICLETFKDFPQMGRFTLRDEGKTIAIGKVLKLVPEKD
Target sequence in this assay (Q96SW2 whole entry, looked up): as the sequence (Q96SW2 whole entry, looked up) above

[13] = Intrinsic clearance in human liver microsomes; assay type: ADME, Microsome; conditions: read-out: CLH
[14] = Cmax in C57BL/6 mouse at 3 mg/kg, po; assay type: ADME, organism-based; conditions: in vivo
Cereblon/Ikaros [15] = biological target: T3, Cereblon/Ikaros (Homo sapiens, UniProt Q96SW2+Q13422); assay: Molecular glue activity at CRBN/HiBiT-tagged IKZF1 (unknown origin) expressed in human GripTite 293 MSR cells assessed as induction of […] incubated for 20 hrs by Nano-Glo HiBiT-Lytic reagent based luminescence plate reader analysis; assay type: cell-based
T3 sequence (Q96SW2 whole entry): as the sequence (Q96SW2 whole entry, looked up) above
T3 sequence (Q13422 whole entry): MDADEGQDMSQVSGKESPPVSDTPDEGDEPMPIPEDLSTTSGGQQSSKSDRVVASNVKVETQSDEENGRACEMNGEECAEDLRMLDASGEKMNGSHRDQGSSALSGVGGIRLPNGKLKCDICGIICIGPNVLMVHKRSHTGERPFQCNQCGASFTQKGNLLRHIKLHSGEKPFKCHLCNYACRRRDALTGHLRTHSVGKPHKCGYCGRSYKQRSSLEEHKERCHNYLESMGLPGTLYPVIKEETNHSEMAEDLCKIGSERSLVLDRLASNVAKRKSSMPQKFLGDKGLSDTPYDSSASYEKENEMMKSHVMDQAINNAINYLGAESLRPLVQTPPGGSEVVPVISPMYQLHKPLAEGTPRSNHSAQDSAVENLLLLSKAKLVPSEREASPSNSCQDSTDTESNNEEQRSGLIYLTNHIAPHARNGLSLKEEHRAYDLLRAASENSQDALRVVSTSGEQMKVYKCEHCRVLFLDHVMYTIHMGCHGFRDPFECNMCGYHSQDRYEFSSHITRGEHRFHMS

[16] = biological target: T1, Protein cereblon/Protein Wiz; assay: In vivo molecular glue activity at CRBN/WIZ in immunocompromised naive NBSGW mouse xenografted with human CD34 positive HSPC cells assessed as induction of WIZ degradation in peripheral blood human […] B cells administered orally once daily for 21 days by staining based analysis; assay type: functional, organism-based; conditions: route po, time 21.0 day
[17] = biological target: T4, Protein cereblon/Sal-like protein 4 (Homo sapiens, UniProt Q96SW2+Q9UJQ4); assay: Molecular glue activity at CRBN/HiBiT-tagged SALL4 (unknown origin) expressed in human GripTite 293 MSR cells assessed as induction of SALL4 degradation incubated for 20 hrs by Nano-Glo HiBiT-Lytic reagent based luminescence plate reader analysis relative to control; assay type: cell-based; set-up: concentration or dose not given beside the values
Target sequence in this assay (Q96SW2 whole entry, looked up): as the sequence (Q96SW2 whole entry, looked up) above
Target sequence in this assay (Q9UJQ4 whole entry, looked up): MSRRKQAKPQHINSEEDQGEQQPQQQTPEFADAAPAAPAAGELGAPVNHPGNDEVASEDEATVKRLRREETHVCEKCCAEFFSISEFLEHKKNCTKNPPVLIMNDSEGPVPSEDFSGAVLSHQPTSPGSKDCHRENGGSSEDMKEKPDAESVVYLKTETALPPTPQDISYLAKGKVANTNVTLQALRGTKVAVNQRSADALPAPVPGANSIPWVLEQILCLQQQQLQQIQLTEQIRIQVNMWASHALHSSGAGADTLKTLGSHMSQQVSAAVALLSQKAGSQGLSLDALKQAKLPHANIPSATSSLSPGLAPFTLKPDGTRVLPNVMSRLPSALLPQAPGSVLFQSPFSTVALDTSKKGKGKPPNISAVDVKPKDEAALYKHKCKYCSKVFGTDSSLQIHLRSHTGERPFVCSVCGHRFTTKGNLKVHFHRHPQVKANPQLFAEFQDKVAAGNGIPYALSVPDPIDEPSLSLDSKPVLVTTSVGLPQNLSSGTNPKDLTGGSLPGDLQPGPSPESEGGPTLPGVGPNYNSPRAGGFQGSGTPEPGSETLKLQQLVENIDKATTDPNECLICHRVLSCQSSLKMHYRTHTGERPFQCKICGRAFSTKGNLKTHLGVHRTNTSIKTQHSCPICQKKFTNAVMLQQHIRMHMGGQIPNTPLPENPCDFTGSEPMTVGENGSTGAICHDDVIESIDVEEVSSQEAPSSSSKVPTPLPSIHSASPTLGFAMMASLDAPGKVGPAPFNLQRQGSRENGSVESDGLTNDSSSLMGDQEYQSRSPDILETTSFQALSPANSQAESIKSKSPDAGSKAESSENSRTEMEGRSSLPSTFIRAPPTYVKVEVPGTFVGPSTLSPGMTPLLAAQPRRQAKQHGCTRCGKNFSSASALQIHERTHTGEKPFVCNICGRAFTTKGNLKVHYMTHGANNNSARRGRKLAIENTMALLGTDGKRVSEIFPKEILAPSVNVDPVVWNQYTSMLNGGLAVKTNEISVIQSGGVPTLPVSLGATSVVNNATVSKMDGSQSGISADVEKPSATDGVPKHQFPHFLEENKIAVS

[18] = biological target: T4, Protein cereblon/Sal-like protein 4; assay: Molecular glue activity at CRBN/HiBiT-tagged SALL4 (unknown origin) expressed in human GripTite 293 MSR cells assessed as induction of SALL4 degradation incubated for 20 hrs by Nano-Glo HiBiT-Lytic reagent based luminescence plate reader analysis; assay type: cell-based
Target sequence in this assay (Q96SW2 whole entry): as the sequence (Q96SW2 whole entry, looked up) above
Target sequence in this assay (Q9UJQ4 whole entry): as the sequence (Q9UJQ4 whole entry, looked up) above

[19] = Protein binding in mouse plasma; assay type: ADME, cell-free; conditions: read-out: PPB (converted)
[20] = biological target: T1, Protein cereblon/Protein Wiz; assay: In vivo molecular glue activity at CRBN/WIZ in immunocompromised naive NBSGW mouse xenografted with human CD34 positive HSPC cells assessed as induction of WIZ degradation in peripheral blood human C19-positive B cells by measuring maximal efficacy at 1 to 10 mg/kg, po administered once daily for 21 days by staining based analysis relative to control; assay type: functional, organism-based; conditions: dose 1-10 mg/kg, time 21.0 day
[21] = Tmax in C57BL/6 mouse at 3 mg/kg, po or 1 mg/kg, iv; assay type: ADME, organism-based; conditions: in vivo
[22] = Apparent permeability across apical to basolateral side in low efflux MDCK cells at 10 uM incubated for 2 hrs by LC-MS analysis; assay type: ADME, cell-based, Canis lupus familiaris; conditions: dog
Cereblon/Ikaros [23] = biological target: T3, Cereblon/Ikaros; assay: Molecular glue activity at CRBN/HiBiT-tagged IKZF1 (unknown origin) expressed in human GripTite 293 MSR cells assessed as induction of […] incubated for 20 hrs by Nano-Glo HiBiT-Lytic reagent based luminescence plate reader analysis relative to control; assay type: cell-based; set-up: concentration or dose not given beside the values
[24] = biological target: T2, Protein cereblon/Eukaryotic peptide chain release factor GTP-binding subunit ERF3A; assay: Molecular glue activity at CRBN/HiBiT-tagged GSPT1 (unknown origin) expressed in human GripTite 293 MSR cells assessed as induction of GSPT1 degradation incubated for 20 hrs by Nano-Glo HiBiT-Lytic reagent based luminescence plate reader analysis; assay type: cell-based
Target sequence in this assay (Q96SW2 whole entry): as the sequence (Q96SW2 whole entry, looked up) above
Target sequence in this assay (P15170 whole entry): as the sequence (P15170 whole entry, looked up) above

[25] = Half-life in C57BL/6 mouse at 1 mg/kg, iv; assay type: ADME, organism-based; conditions: in vivo
[26] = Protein binding in human plasma; assay type: ADME, cell-free; conditions: read-out: PPB (converted)
[27] = biological target: T1, Protein cereblon/Protein Wiz; assay: Molecular glue activity at CRBN/WIZ in human CD34-positive derived primary erythroblast cells assessed as increase in fetal hemoglobin positive cells in CD71+ CD235a+ subpopulation measured after 7 days by flow cytometric analysis relative to control; assay type: cell-based; conditions: time 7.0 day
[28] = Bioavailability last in C57BL/6 mouse; assay type: ADME, organism-based; conditions: in vivo
[29] = Clearance in C57BL/6 mouse at 1 mg/kg, iv; assay type: ADME, organism-based; conditions: in vivo

Compound: CCN1CCCC[C@@H]1COc1ccc2c(c1)CN(C1CCC(=O)NC1=O)C2=O (some centres undefined)
- microsomal CLint [1]: < 25 µL/min/mg
- Emax [2]: 74%
- solubility [3]: 450 µM (≈ 173 µg/mL)
- fraction unbound [4]: > 0.8
- Vd [5]: 2.2 L/kg
- fold change (FC) [6]: 5
- microsomal CLint [7]: < 25 µL/min/mg
- Activity [8]: 82%
- recovery at 2 h, 10 µM [9]: 95%
- AUC(0-t) [10]: 0.713 µM·h
- Activity [11]: Non-toxic
- Activity [12]: < 10%
- microsomal CLint [13]: < 25 µL/min/mg
- Cmax [14]: 157 nM
- DC50 (Cereblon/Ikaros [15]): > 50 µM
- Activity [16]: Dose-dependent-effect
- Activity [17]: 50%
- DC50 [18]: 3.8 µM
- fraction unbound [19]: > 0.8
- Emax [20]: 63%
- Tmax [21]: 2.3 h
- Papp A→B at 2 h, 10 µM [22]: 1.1 ×10⁻⁶ cm/s
- Activity (Cereblon/Ikaros [23]): < 10%
- DC50 [24]: > 50 µM
- half-life [25]: 1.7 h
- fraction unbound [26]: > 0.8
- Activity [27]: 20%
- bioavailability [28]: 13%
- clearance [29]: 22 mL/min/kg

Reference: ChEMBL document CHEMBL6074667, “Discovery and Optimization of First-in-Class Molecular Glue Degraders of the WIZ Transcription Factor for Fetal Hemoglobin Induction to Treat Sickle Cell Disease” (J Med Chem, 2024)
